Target: NLRP3 (Homo sapiens, UniProt Q96P20)
Experiment: THP-1 cell-based NLRP3 activation assay
Design: endogenous in cells; host or cells: THP-1 cells (PMA-differentiated, LPS-primed, nigericin-stimulated)
Conditions: PMA-differentiated THP-1 cells, LPS 100 ng/mL then 10 μM nigericin
Protocol: THP-1 cells are cultured in complete media (CM) until they reach logarithmic growth and achieve a viability >90%. CM is composed of RPMI-1640 (+Glutamax)/10% fetal bovine serum/55 μM β-mercaptoethanol/pen/strep. Cells are spun down and resuspended to 1,000,000 cells/mL in CM containing either 20 nM or 500 nM PMA. 150,000 cells (150 μL) are then added to each well of a 96-well TC plate and incubated for either 24 hr or 3 hr, respectively, in a standard cell culture incubator (37° C.; 5% CO2). After this incubation, the plate is tilted and media carefully removed. 200 μL of CM containing 100 ng/mL LPS is then added to the wells and the cells incubated an additional 3 hrs. The media is again removed and replaced with Opti-Mem medium containing pre-determined dilutions of test compounds in replicate wells. After a 30 min incubation, 10 μM nigericin (final concentration) in Opti-Mem medium with the corresponding concentration of compound is added to the wells for an additional 1 hr. Positive control wells contain 10 μM nigericin in Opti-Mem in the absence of test compound, while negative control wells contain Opti-Mem only. […] Once supernatants are removed, the relative viability of adherent cells in the 96-well TC plate are determined using a CellTiter-Glo® luminescent cell viability assay (Promega).

Chain of NLRP3 (Q96P20 whole entry): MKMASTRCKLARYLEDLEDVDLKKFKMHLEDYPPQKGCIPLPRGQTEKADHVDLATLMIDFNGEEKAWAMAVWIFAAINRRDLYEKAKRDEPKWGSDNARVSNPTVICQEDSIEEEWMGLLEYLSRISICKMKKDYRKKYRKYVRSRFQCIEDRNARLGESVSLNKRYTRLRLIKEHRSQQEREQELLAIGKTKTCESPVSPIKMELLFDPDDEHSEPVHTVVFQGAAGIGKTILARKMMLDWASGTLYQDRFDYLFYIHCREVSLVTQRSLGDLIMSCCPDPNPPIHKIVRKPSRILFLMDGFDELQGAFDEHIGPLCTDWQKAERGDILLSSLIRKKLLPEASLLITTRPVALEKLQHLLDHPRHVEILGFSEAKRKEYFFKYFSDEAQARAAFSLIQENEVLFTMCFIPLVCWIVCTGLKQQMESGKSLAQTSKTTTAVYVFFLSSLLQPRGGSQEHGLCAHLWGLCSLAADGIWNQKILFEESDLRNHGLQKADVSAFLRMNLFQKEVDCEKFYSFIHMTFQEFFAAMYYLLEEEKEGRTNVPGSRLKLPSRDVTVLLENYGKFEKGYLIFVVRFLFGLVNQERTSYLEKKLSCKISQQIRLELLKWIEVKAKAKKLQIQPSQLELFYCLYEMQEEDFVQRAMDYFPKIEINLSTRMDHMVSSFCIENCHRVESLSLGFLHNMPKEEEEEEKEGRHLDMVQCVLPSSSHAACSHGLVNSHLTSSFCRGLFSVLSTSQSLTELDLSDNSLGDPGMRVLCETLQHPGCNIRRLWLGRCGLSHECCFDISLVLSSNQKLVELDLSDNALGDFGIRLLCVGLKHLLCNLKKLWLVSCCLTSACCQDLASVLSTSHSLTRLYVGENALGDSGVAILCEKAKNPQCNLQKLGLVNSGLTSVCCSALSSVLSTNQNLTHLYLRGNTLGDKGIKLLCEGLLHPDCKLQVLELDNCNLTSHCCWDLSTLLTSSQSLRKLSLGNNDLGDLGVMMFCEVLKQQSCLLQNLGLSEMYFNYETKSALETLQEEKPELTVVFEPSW

IC50 [nM]	Structure (SMILES)
< 100	CCOc1cc(C(=O)N(C)[C@H](CCN(CC)CC)c2cccc3cn[nH]c23)ccc1-c1cccc(F)c1 [Compound 215]
100 to 500	CCOc1cc(C(=O)N(C)[C@H](CCN(C)C)c2ccc(C)c3cn[nH]c23)ccc1-c1ccccc1 [Compound 204]
< 100	CCOc1cc(C(=O)N(Cc2cncc3cn[nH]c23)[C@H]2C[C@@H](NC)C2)ccc1-c1cccc(C#N)c1 [Compound 291]
< 100	CCOc1cc(C(=O)N(C)[C@@H](c2cncc3cn[nH]c23)[C@H]2CCN(C)C2)ccc1-c1cccc(F)c1 [Compound 082]
< 100	CCOc1cc(C(=O)N(C)[C@H](CCNC(=O)CC)c2cncc3cn[nH]c23)ccc1-c1cccc(F)c1 [Compound 147]
< 100	CCOc1cc(C(=O)N(C)[C@H](CCN(C)C)c2cncc3cn[nH]c23)ccc1C1CCCC1 [Compound 157]
< 100	CCOc1cc(C(=O)N(C)[C@H](c2cncc3cn[nH]c23)[C@@H]2CCNC2)ccc1-c1ccccc1 [Compound 154]
< 100	CCOc1cc(C(=O)N(C)[C@H](CCN)c2cncc3cn[nH]c23)ccc1-c1ccccc1 [Compound 140]
> 15000	CCOc1cc(C(=O)N(Cc2cnc(C)c3cn[nH]c23)C(C)CO)ccc1-c1cccc(F)c1 (centres unmarked) [Compound 052]
100 to 500	CCOc1cc(C(=O)N(C)C(CN(C)C)c2cncc3cn[nH]c23)ccc1-c1ccccc1 (centres unmarked) [Compound 226]
< 100	CCOc1cc(C(=O)N(Cc2cncc3cn[nH]c23)[C@H]2C[C@@H](CN)C2)ccc1-c1cccc(F)c1 [Compound 248]
500 to 1000	CCOc1cccc(C(=O)N(C)[C@H](CCN(C)C)c2cnc(CO)c3cn[nH]c23)c1 [Compound 180]
1000 to 15000	CN(C(=O)c1ccc(-c2cccc(Cl)c2)c(OC2CC2)c1)[C@H](CCN1CCC1)c1cncc2cn[nH]c12 [Compound 281]
< 100	CCOc1cc(C(=O)N(C)[C@H](c2cnc(C)c3cn[nH]c23)C2CN(C)C2)ccc1-c1cccc(F)c1 [Compound 065]
< 100	CCOc1cc(C(=O)N(C)[C@H](CCN(C)C)c2cccc3cn[nH]c23)ccc1-c1cccc(C)c1 [Compound 195]
< 100	CCOc1cc(C(=O)N(C)[C@@H](CN(C)C)c2cccc3cn[nH]c23)ccc1-c1cccc(Cl)c1 [Compound 221]
< 100	CCOc1cc(C(=O)N(C)[C@H](CCN(C)C)c2cncc3cn[nH]c23)ccc1-c1cccc(Cl)c1 [Compound 098]
< 100	CCOc1cc(C(=O)N(C)[C@@H](CCN(C)C)c2cccc3cn[nH]c23)ccc1-c1ccccc1 [Compound 212]
< 100	CN(C)CC[C@H](c1cccc2cn[nH]c12)N(C)C(=O)c1ccc(-c2cccc(F)c2)c(OC2CC2)c1 [Compound 198]
1000 to 15000	CCOc1cc(C(=O)N(C)[C@H](c2cncc3cn[nH]c23)C2CNC2)ccc1-c1cccc(C#N)c1 [Compound 142]
500 to 1000	CCOc1cc(C(=O)N(C)[C@H](CN2CCCC2)c2cccc3cn[nH]c23)ccc1-c1cccc(F)c1 [Compound 222]

IC50 [nM]	Structure (SMILES)
< 100	CCOc1cc(C(=O)N(C)[C@@H](c2cncc3cn[nH]c23)C2CNC2)ccc1-c1cccc(Cl)c1 [Compound 181]
< 100	CCOc1cc(C(=O)N(C)[C@H](COC)c2cncc3cn[nH]c23)ccc1-c1cccc(F)c1 [Compound 013]
< 100	CCOc1cc(C(=O)N(C)[C@H](c2cncc3cn[nH]c23)C2CN(CC)C2)ccc1-c1cccc(Cl)c1 [Compound 131]
< 100	CCOc1cc(C(=O)N(C)[C@H](CN(C)C)c2cnc(CO)c3cn[nH]c23)ccc1-c1cccc(F)c1 [Compound 188]
< 100	CCc1ncc([C@@H](CO)N(C)C(=O)c2ccc(-c3cc(F)cc(F)c3)c(OC3CC3)c2)c2[nH]ncc12 [Compound 035]
< 100	CCOc1cc(C(=O)N(C)[C@H](CCNC)c2cccc3cn[nH]c23)ccc1-c1cccc(F)c1 [Compound 197]
100 to 500	CCOc1cc(C(=O)N(C)[C@H](c2cncc3cn[nH]c23)C2CN(C(C)C)C2)ccc1-c1cccc(F)c1 [Compound 176]
< 100	CCOc1cc(C(=O)N(C)[C@H](CCNC)c2cncc3cn[nH]c23)ccc1-c1cc(F)cc(C#N)c1 [Compound 280]
< 100	CCOc1cc(C(=O)N(C)[C@@H](c2cncc3cn[nH]c23)C2CNC2)ccc1-c1cccc(C)c1 [Compound 168]
100 to 500	CCOc1cc(C(=O)N(C)[C@H](CO)c2cnc(CC)c3cn[nH]c23)ccc1-c1cc(C)cc(F)c1 [Compound 032]
< 100	CCOc1cc(C(=O)N(C)[C@H](CCN(C)C)c2cncc3cn[nH]c23)ccc1-c1cc(F)cc(C#N)c1 [Compound 279]
< 100	CCOc1cc(C(=O)N(C)[C@H](c2cncc3cn[nH]c23)[C@H]2CCNC2)ccc1-c1cccc(F)c1 (single isomer, unassigned) [Compound 085]
< 100	CCOc1cc(C(=O)N(C)[C@H](CC[N+]([O-])(CC)CC)c2cccc3cn[nH]c23)ccc1-c1cccc(Cl)c1 [Compound 207]
1000 to 15000	CCOc1cc(C(=O)N(C)[C@@H](CCO)c2cncc3cn[nH]c23)ccc1-c1ccccc1 [Compound 010]
< 100	CCOc1cc(C(=O)N(Cc2cncc3cn[nH]c23)[C@H]2C[C@@H](N(C)C)C2)ccc1-c1ccccc1 [Compound 245]
100 to 500	CCOc1cc(CN(CCN2CCOCC2)Cc2cncc3cn[nH]c23)ccc1-c1cccc(F)c1 [Compound 118]
< 100	CCOc1cc(C(=O)N(C)[C@H](CCN(C)C)c2cnc(C)c3cn[nH]c23)ccc1-c1cccc(Cl)c1 [Compound 076]
< 100	CCOc1cc(C(=O)N(Cc2cnc(C)c3cn[nH]c23)C2CC2O)ccc1-c1cccc(F)c1 (centres unmarked) [Compound 045]
< 100	CCOc1cc(C(=O)N(C)[C@H](CCN(C)CCF)c2cncc3cn[nH]c23)ccc1-c1cccc(F)c1 [Compound 095]
< 100	CN(C(=O)c1ccc(-c2cccc(F)c2)c(OC2CC2)c1)[C@H](CC[N+](C)(C)[O-])c1cncc2cn[nH]c12 [Compound 165]
< 100	CCOc1cc(C(=O)N(C)C(CN2CCC2)c2cccc3cn[nH]c23)ccc1-c1cccc(F)c1 (centres unmarked) [Compound 264]

IC50 [nM]	Structure (SMILES)
< 100	CCOc1cc(C(=O)N(C)[C@@H](c2cncc3cn[nH]c23)[C@H]2CCN(C)C2)ccc1-c1ccccc1 [Compound 153]
< 100	CCOc1cc(C(=O)N(C)[C@H](CCN(CC)CCF)c2cncc3cn[nH]c23)ccc1-c1cccc(F)c1 [Compound 184]
< 100	CCOc1cc(C(=O)N(CCN2CCC(F)C2)Cc2cncc3cn[nH]c23)ccc1-c1cccc(F)c1 (centres unmarked) [Compound 109]
1000 to 15000	CCOc1cc(C(=O)N(C)[C@H](c2cncc3cn[nH]c23)C2CN(C(C)C)C2)ccc1-c1ccccc1 [Compound 132]
< 100	CCOc1cc(C(=O)N(C)[C@H](CO)c2cncc3cn[nH]c23)ccc1-c1cccc(F)c1 [Compound 001]
500 to 1000	CCOc1cc(C(=O)N(C)[C@@H](CN(C)C)c2cncc3cn[nH]c23)ccc1-c1cccc(F)c1 [Compound 122]
< 100	CCOc1cc(C(=O)N(C)[C@H](CCN2C[C@@H](F)[C@H](F)C2)c2cncc3cn[nH]c23)ccc1-c1cccc(F)c1 [Compound 093]
< 100	CCOc1cc(C(=O)N(C)C(CCN(C)CC)c2cncc3cn[nH]c23)ccc1-c1cccc(F)c1 (centres unmarked) [Compound 066]
500 to 1000	CCOc1cc(C(=O)N(C)[C@@H](c2cncc3cn[nH]c23)[C@H]2CCNC2)ccc1-c1ccccc1 [Compound 152]
100 to 500	CCOc1cc(C(=O)N(Cc2cncc3cn[nH]c23)[C@H]2CC[C@@H]2N(C)C)ccc1-c1cccc(Cl)c1 [Compound 288]
< 100	CCOc1cc(C(=O)N(C)[C@H](CN(C)C)c2cncc3cn[nH]c23)ccc1-c1cccc(F)c1 [Compound 121]
< 100	CCOc1cc(C(=O)N(C)[C@H](CCN(C)CC(F)F)c2cncc3cn[nH]c23)ccc1-c1cccc(F)c1 [Compound 094]
< 100	CCOc1cc(C(=O)N(CCN2CCCC2)Cc2cncc3cn[nH]c23)ccc1-c1cccc(F)c1 [Compound 119]
< 100	CCOc1cc(C(=O)N(C)[C@H](CCNC)c2cncc3cn[nH]c23)ccc1-c1ccccc1 [Compound 193]
< 100	[2H]C([2H])([2H])NCC[C@H](c1cncc2cn[nH]c12)N(C)C(=O)c1ccc(-c2cccc(F)c2)c(OCC)c1 [Compound 231]
< 100	CCOc1cc(C(=O)N(CCO)Cc2cncc3cn[nH]c23)ccc1-c1cccc(F)c1 [Compound 041]
< 100	CCOc1cc(C(=O)N(C)[C@H](CC[N+](C)([O-])CC)c2cncc3cn[nH]c23)ccc1-c1cccc(Cl)c1 (some centres unmarked) [Compound 254]
< 100	CCOc1cc(C(=O)N(C)[C@@H](c2cncc3cn[nH]c23)C2CN(CC)C2)ccc1-c1cccc(Cl)c1 [Compound 172]
< 100	CCOc1cc(C(=O)N(C)[C@@H](CCN(C)C)c2cncc3cn[nH]c23)ccc1-c1cccc(F)c1 [Compound 162]
> 15000	Cc1ncc([C@H](CCO)N(C)C(=O)c2ccc(-c3cccc(F)c3)c(OC3CC3)c2)c2[nH]ncc12 [Compound 031]

Reference: patent publication US12509459B2, “Inhibitors of NLRP3 inflammasome” (BioAge Labs, Inc., priority 2024, dated 2025)
